Reference: paper PMC4559881 (Molecular Neurodegeneration, 2015)
“And” between values parts separate entries of the source, which are not always exact repeats. Equal values may be shown once. Read-outs that look alike come from different tables or passages of the source.

What was measured:
[1] = Dog PK/PD study: NB-360 exposure in blood and CSF; type: in vivo; conditions: male, Beagle, blood, po, 0.5 mg/kg p.o.
Description: Blood and CSF were sampled before treatment (at -24 and at -1 h) and at various time points after oral dosing, up to 168 h.
Brain samples were homogenized with 2 mM KH2PO4 buffer (approx. 1/2, w/v). […] The LLOQ ranged between 0.4 and 2 ng/mL in blood and 1.2 ng/g and 6 ng/g in brain.
Rat studies used male Charles River Sprague-Dawley rats of approx. 300 g body weight. Female transgenic APP51/16 mice (C57BL/6 background strain) were bred in-house. APP51/16 mice express human wild-type APP751 under the control of a Thy-1 expression cassette in brain neurons, and are characterized by mostly cortical, but few vascular amyloid-β deposits. […] Dosing was per os in a dose volume of 10 ml/kg for mice and 5 ml/kg for rats. […] Rodents were deeply anesthetized for CSF sampling from the cisterna magna, accessed through the exposed atlanto-occipital membrane. CSF was harvested into protein lo-bind Eppendorf tubes and frozen on dry ice. Animals were decapitated while anesthetized and blood and brain samples collected. Brains were briefly rinsed in PBS, quickly wet-dissected and samples frozen on a metal plate precooled on dry ice. All samples were stored at -80 ° C until analysis. The dog study was carried out at Charles River Laboratories, Canada. Male dogs were used with n = 4 per group. A cannula with an access port was implanted under anesthesia, to allow serial CSF sampling from the lateral ventricle. […]

[2] = Pharmacokinetics after i.v. and oral application, rat
Description: (§3) Pharmacokinetic studies used male Sprague Dawley rats, C57BL6 mice and Beagle dogs, obtained from Charles River (France, rodents) and Marshall (Italy, dogs). […] Blood was collected i.v., by sublingual bleeding or at sacrifice whereas a serial blood sampling allowed obtaining individual PK profiles in these species. Blood samples were taken between 5 min (intravenous) and 15 min (oral) up to 24 h (mice), 48 h (rat) and 408 h (dog).
(§4) The absorption and disposition parameters were estimated by a non-compartmental analysis of the mean blood concentration (n = 3 mice) or individual concentration (rats, dogs) versus time profile after oral and intravenous administration.

wtAPP CHO cells = test: Release of APP metabolites from wild-type human APP751 CHO cells; conditions: Cricetulus griseus, 24 h
[3] = Blood pharmacokinetics and brain penetration in the rat, 30 μmol/kg oral; type: in vivo; conditions: for Cmax / AUC(0-t): male, Sprague Dawley, 30 umol/kg
Source text: In vivo blood pharmacokinetics and brain penetration was investigated in the rat.

[4] = Dissociation constant (pKa); type: physicochemical
[5] = Pharmacokinetics after i.v. and oral application, mouse
Description: as §3, §4

APP51/16 transgenic mice [6] = test: Chronic 6-week treatment of APP51/16 mice: APP metabolites, Aβ deposition and neuroinflammation; type: in vivo, mouse; conditions: for CSF Aβ40 reduction / CSF Aβ42 reduction: 100 μmol/kg/d 6 weeks
Description: (§1) Frozen rodent forebrains were homogenized in 9 volumes of ice-cold Tris-buffered saline (pH 7.4) containing Complete protease inhibitor cocktail (Roche Diagnostics, Penzberg, Germany) using a Sonifier 450 (Branson) and stored in aliquots at -80 °C. Triton X-100 soluble Aβ was extracted by mixing 50 μl 2 % Triton X-100 with 50 μl homogenate, incubating for 15 min on ice with vortexing, followed by ultracentrifugation at 100000xg for 15 min. The clear supernatant was diluted to a final forebrain dilution of 1:100 and used for analysis. For the extraction of insoluble amyloid peptides, 50 μl forebrain homogenate was mixed with 117 μl of 100 % formic acid and stored on ice for 15 min with vortexing. Samples were neutralized with 950 μl 1 M Tris base, containing Complete protease inhibitor cocktail (Roche, Basle, Switzerland) and stored overnight at room temperature. The supernatant after 15 min centrifugation at 14000 rpm was used for analysis.
(§2) Aβ38, 40 and 42 were determined using the electro-chemiluminescence immuno assay kits from Meso Scale Discovery (Rockville, MD, USA) in either singlet or triplex format. Samples and standards were prepared according to the manufactures protocols. The kit based on the antibody 4G8 was used for rat forebrain and CSF samples, and kits based on 6E10 were used for dog CSF or plasma and APP51/16 brain and CSF samples. Soluble APPα and sAPPβ from APP51/16 mice were determined from the 100000xg supernatant and analyzed with Meso Scale Discovery commercial kits. C-terminal fragments C83 and C99 were determined from Western blots. Forebrain homogenates dephosphorylated with lambda protein phosphatase as described and run on a 10 % Tris-bicine gel with 8 M urea. After transfer to Immobilon P membranes (Bio-Rad Bedford MA USA), bands were probed with APP C8 antibody (recognizing the C-terminus of APP) and detected with goat anti-mouse IgG Fab fragment AlexaFluor680 (Invitrogen). The same gel was used to visualize Aβ1-38, 1-40, and 1-42 using the N-terminal antibody beta1 and goat anti rabbit IgG IRdye 800CW (Odyssey). Full-length human APP was detected using an in house immunoassay based on the MSD ECL system as described.

[7] = Octanol/water distribution coefficient; type: physicochemical; conditions: derived from apparent permeability across an artificial liquid membrane
Description: The octanol/water distribution coefficient was derived from the apparent permeability across an artificial liquid membrane. The PAMPA assay was done as described. MDCK cells overexpressing human p-glycoprotein (MDR1-MDCK cells, obtained from Prof. A. Berns, Netherlands Cancer Institute) were grown on HTS Multiwell plates, 1 μm pore size (Becton Dickinson). After formation of a tight monolayer, NB-360 was applied to either the upper or the lower chamber. After one hour, liquid was removed from the upper and lower chambers and analyzed by HPLC-MS. Apical-to-basolateral and basolateral-to-apical transport rates were calculated.

[8] = Chronic treatment of mice: observations (mortality, hair colour, retina); type: in vivo; conditions: APP51/16 mice, 100 μmol/kg p.o. once daily
Aβ40 [9] = test: Dog PK/PD study: Aβ40 in CSF and plasma; type: in vivo
Description: The mean (± SD) level of Aβ40 in the CSF prior to dosing was 5991 ± 1199 pg/ml (2 sampling times -24 h and -1 h, n = 7), and the predose plasma Aβ40 level was 261 ± 13 pg/ml (mean ± SD, n = 4, -1 h). […] All dogs responded strongly to the treatment, CSF Aβ40 was reduced by approximately 80 % from 12 to 48 h post dose and slowly returned to baseline (Fig. 3b). […] Furthermore, the available data were used for a calculation of the Aβ40 clearance rate from dog CSF.
as §2

Aβ40 [10] = test: Rat PK/PD study: Aβ40 in forebrain and CSF after oral dosing; type: in vivo; conditions: for ED50: po, at 4 h, read-out: ED50 for inhibition of forebrain Aβ40
Description: Maximum activity was between 4 and 8 h, and Aβ40 concentrations returned to baseline after 24 h. Significant (>50 %) Aβ40 lowering was observed even at the lowest dose of 3 μmol/kg, and the effect saturated at higher doses.
as §1, §2

APP51/16 transgenic mice [11] = test: Chronic 6-week treatment of APP51/16 mice: APP metabolites, Aβ deposition and neuroinflammation; type: in vivo, mouse; conditions: relative to vehicle-treated mice
[12] = male, Sprague Dawley, blood, iv, 2 umol/kg
[13] = approximate area under the effect curve, 0, 4, 24 h after last dose

With `Cc1cc(C#N)cnc1C(=O)Nc1ccc(F)c([C@]2(C)CO[C@@](C)(C(F)(F)F)C(N)=N2)c1` [NB-360] the concentration at 168 h [1] was 23 ± 31 nM, the “Vol. of Distribution” value ([2]; 2 μmol/kg i.v.) was 10.2 L/kg and the clearance [2, 12] was 52 mL/min/kg. For the same compound, the half-life [2, 12] was 2.7 h, the bioavailability ([2]; male, Sprague Dawley, blood, po, 6 umol/kg) was 92% and the IC50 (wtAPP CHO cells; read-out: IC50 Aβ40 release) was 3 nM. For the same compound, the IC50 (wtAPP CHO cells; read-out: IC50 Aβ42 release) was 3 nM, the IC50 (wtAPP CHO cells; read-out: IC50 sAPPβ release) was 4 nM and the “unbound AUC 0-24 h blood” value ([3]; blood, corrected for nonspecific binding) was 0.63 µM·h. For the same compound, the “unbound AUC 0-24 h brain” value ([3]; brain, corrected for nonspecific binding) was 0.54 µM·h, the Cmax ([3]; blood) was 1620 nM and the AUC(0-t) ([3]; blood, read-out: AUC 0-24 h blood) was 10.2 µM·h. For the same compound, the Cmax ([3]; brain) was 4010 nM, the AUC(0-t) ([3]; brain, read-out: AUC 0-24 h brain) was 23.6 µM·h and the pKa [4] was 7.1. For the same compound, the clearance ([5]; C57BL6, mouse, blood, iv, 2 umol/kg) was 16 mL/min/kg, the bioavailability ([5]; C57BL6, mouse, blood, po, 6 umol/kg) was 37% and the “Terminal half-life after i.v. application” value ([5]; mouse, 2 μmol/kg i.v.) was 3.6 h. The “Vol. of Distribution” value ([5]; mouse, 2 μmol/kg i.v.) was 4.6 L/kg, the “CSF Aβ40 reduction” value (APP51/16 transgenic mice [6]; 4 h after the dose) was greater than 90% and the “CSF Aβ42 reduction” value (APP51/16 transgenic mice [6]; 4 h after the dose) was greater than 90%. The “CSF Aβ40 reduction” value (APP51/16 transgenic mice [6]; 24 h) was “about 60%”, the “CSF Aβ42 reduction” value (APP51/16 transgenic mice [6]; 24 h) was “about 60%” and the “C99 reduction in Triton TX-100 forebrain extract” value (APP51/16 transgenic mice [6]; 4 h after the last dose) was “about 80%”. The “sAPPβ reduction in Triton TX-100 forebrain extract” value (APP51/16 transgenic mice [6]; 4 h after the last dose) was “about 80%”, the “C99 reduction in Triton TX-100 forebrain extract” value (APP51/16 transgenic mice [6]; 24 h after the last dose) was 57% and the “sAPPβ reduction in Triton TX-100 forebrain extract” value (APP51/16 transgenic mice [6]; 24 h after the last dose) was 70%. The “Formic-acid extracted Aβ 1-38 in forebrain homogenate” value (APP51/16 transgenic mice [6]; NB-360 group, Mean ± SEM, N 14) was 77.0 ± 24.9 pmol/g forebrain, the “Formic-acid extracted Aβ 1-40 in forebrain homogenate” value (APP51/16 transgenic mice [6]; NB-360 group, Mean ± SEM, N 14) was 197.3 ± 43.4 pmol/g forebrain and the “Formic-acid extracted Aβ 1-42 in forebrain homogenate” value (APP51/16 transgenic mice [6]; NB-360 group, Mean ± SEM, N 14) was 106.6 ± 20.9 pmol/g forebrain. The “Plasma Aβ40 reduction, AUEC24h” value (APP51/16 transgenic mice [6]; approximate area under the effect curve after last dose) was 70%, the “CSF Aβ40 reduction, AUEC24h” value (APP51/16 transgenic mice [6]; [13]) was “approximately 75%” and the “CSF Aβ42 reduction, AUEC24h” value (APP51/16 transgenic mice [6]; [13]) was “approximately 75%”. The “CSF sAPPβ reduction, AUEC24h” value (APP51/16 transgenic mice [6]; [13]) was “approximately 75%”, the “C83 average increase above vehicle control” value (APP51/16 transgenic mice [6]; forebrain extract, 4 and 24 h) was 50% and the “sAPPα average increase above vehicle control” value (APP51/16 transgenic mice [6]; forebrain extract, 4 and 24 h) was 50%. The “Aβ 1-38, NB-360 group, change vs baseline” value (APP51/16 transgenic mice [6]; formic-acid extract) was -33.5 % p = 0.39, the “Aβ 1-38, NB-360 group, change vs vehicle” value (APP51/16 transgenic mice [6]; formic-acid extract) was -68.0 % p = 0.015 and the “Aβ 1-40, NB-360 group, change vs baseline” value (APP51/16 transgenic mice [6]; formic-acid extract) was -16.1 % p = 0.52. For the same compound, the “Aβ 1-40, NB-360 group, change vs vehicle” value (APP51/16 transgenic mice [6]; formic-acid extract) was -64.5 % p = 0.003, the “Aβ 1-42, NB-360 group, change vs vehicle” value (APP51/16 transgenic mice [6]; formic-acid extract) was -69.3 % p = 0.0006 and the “number of Aβ deposits (large plaques, small plaques, granules) per 3 cortical sections” value (APP51/16 transgenic mice [6]; irrespective of the deposit size) was “indistinguishable from baseline”. The “total area of cortical region of interest stained positively for NT12” value (APP51/16 transgenic mice [6]; mean ± SEM, p = 0.093 vs baseline, p <0.0001 vs vehicle) was 0.209 ± 0.054%, the “number of Iba-1 positive cell clusters in the cortex” value (APP51/16 transgenic mice [6]; relative to vehicle-treated mice) was “substantially lower” and the logP [7] was 3.7. For the same compound, the “first appearance of grey hair patches” value [8] was 2-3 weeks, the mortality during treatment ([8]; 6 weeks) was “Two out of 17 mice in the treatment group died” and the “time to reach the maximum effect on CSF Aβ” value (Aβ40 [9]; 1.1 μmol/kg (0.5 mg/kg)) was “around 12 h”. The “time at which CSF Aβ40 reached baseline” value (Aβ40 [9]; 0.5 mg/kg p.o.) was “about 120 h”, the “Plasma Aβ40 change” value (Aβ40 [9]; 0.5 mg/kg p.o., after 1 h) was -42% and the “Plasma Aβ40 change” value (Aβ40 [9]; 0.5 mg/kg p.o., after 12 h) was -70%. The “CSF Aβ40 reduction” value (Aβ40 [9]; 0.5 mg/kg p.o., from 12 to 48 h post dose) was “approximately 80%”, the IC50 (Aβ40 [9]; Canis lupus familiaris, read-out: in vivo IC50 of NB-360 in blood for the reduction of Aβ40 in CSF, PK/PD modelling) was 59 ± 13 nM and the “Aβ reduction, approximate area under the effect curve over a 24 h period” value (Aβ40 [9]; from the values at 12 and 36 h) was 70-75%. The Aβ40 inhibition (Aβ40 [10]; 30 μmol/kg p.o., 4 h) was 90.9% and ~ 90%, the “Max effect (dose-response in brain)” value (Aβ40 [10]; based on 4 h data, Fig. 2d) was 91% and the Aβ40 lowering (Aβ40 [10]; lowest dose 3 μmol/kg p.o.) was greater than 50%. The ED50 (Aβ40 [10]; converted dose) was 0.7 mg/kg, the ED50 (Aβ40 [10]) was 1.6 ± 0.25 µmol/kg and the “number of GFAP positive cell clusters in the cortex” value (APP51/16 transgenic mice [11]) was “substantially lower”.
